# Laboratory results: article PMC6792352, “Limited Chemical Structural Diversity Found to Modulate Thyroid Hormone Receptor in the Tox21 Chemical Library” (Environmental Health Perspectives, 2019)
# Where a name gives a salt, the structure may show the parent alone.
# Assay: in vitro
# Settings: rat, gh3-tre-luc cells
SMILES,CC50 at 24 h (AC50 (uM) modified / 1000),further results
C[C@H]1[C@H]2Cc3ccc(O)cc3[C@]1(C)CCN2CCc1ccccc1 [(-)-Phenazocine hydrobromide],–,"CC50 at 24 h (AC50 (uM) modified / 1000, Tox21_110001=Tox21_112835, viability, 1 nM T3 present, 24 h): 48.2 µM"
"O=C(O)c1cccc(C(=O)O)n1 [2,6-Pyridinedicarboxylic acid]",> 90 µM,–
O=C1c2ccccc2C(=O)c2c1ccc(O)c2O [Alizarin],> 50 µM,–
O=Cc1ccc(F)cc1 [4-Fluorobenzaldehyde],> 90 µM,–
Nc1ccc(C(=O)NCC(=O)O)cc1 [Aminohippuric acid],> 20 µM,–
ClC1=C(Cl)[C@]2(Cl)[C@@H]3[C@@H]4C[C@@H]([C@H]5O[C@@H]45)[C@@H]3[C@@]1(Cl)C2(Cl)Cl [Dieldrin],–,"CC50 at 24 h (AC50 (uM) modified / 1000, Tox21_110001=Tox21_400029, viability, 1 nM T3 present, 24 h): 75.8 µM"
CC(C)c1ccc2ncccc2c1 [6-(1-Methylethyl)quinoline],> 90 µM,–
CC1(C)[C@H](C(=O)O)N2C(=O)C[C@H]2S1(=O)=O [Sulbactam],> 50 µM,–
O=C(Oc1cccc2cccnc12)c1ccccc1 [Benzoxiquine],12 µM,–
"CC1CCCC(=O)C1=O (stereo not drawn) [3-Methylcyclohexane-1,2-dione]",> 90 µM,–
CCOC(=O)CBr [Ethyl bromoacetate],–,"CC50 at 24 h (AC50 (uM) modified / 1000, Tox21_110001=Tox21_200152, viability, 1 nM T3 present, 24 h): > 90 µM"
CCOP(=S)(OCC)SCSCC [Phorate],–,"CC50 at 24 h (AC50 (uM) modified / 1000, Tox21_110001=Tox21_300398, viability, 1 nM T3 present, 24 h): > 90 µM"
CCOC(=O)O[C@H](C)OC(=O)c1ccc2c(c1)cc(C(=O)NC1CCN(C(C)C)CC1)n2Cc1cc(-c2ccc(Cl)s2)on1 [AVE6324],4.58 µM,–
NC(=S)c1c(Cl)cccc1Cl [Chlorthiamid],> 90 µM,–
Cc1cc(N)n(-c2ccccc2)n1 [3-Methyl-1-phenyl-1H-pyrazol-5-amine],> 90 µM,–
CC(C)C(Br)C(=O)NC(N)=O (stereo not drawn) [Bromisovalum],–,"CC50 at 24 h (AC50 (uM) modified / 1000, Tox21_110001=Tox21_111815, viability, 1 nM T3 present, 24 h): > 50 µM"
Cc1cc(C)c(N=Nc2c(O)c(S(=O)(=O)O)cc3cc(S(=O)(=O)O)ccc23)cc1C [Ponceau 3R],> 6 µM,–
"CN(C)CCc1c[nH]c2ccccc12 [N,N-Dimethyltryptamine fumarate]",> 100 µM,–
CN(C)CCOCCO [2-[2-(Dimethylamino)ethoxy]ethanol],> 90 µM,–
"Clc1ccc(Cl)c(Cl)c1 [1,2,4-Trichlorobenzene]",> 90 µM,–
COC(=O)NS(=O)(=O)c1ccc(N)cc1 [Asulam],> 90 µM,–
Cc1ccccc1C [o-Xylene],> 90 µM,–
"NCc1cccc(CN)c1 [1,3-Benzenedimethanamine]",> 90 µM,–
C#C[C@]1(O)CC[C@H]2[C@@H]3CCC4=CCCC[C@@H]4[C@H]3C(=C)C[C@@]21CC [Desogestrel],34.9 µM,–

SMILES,CC50 at 24 h (AC50 (uM) modified / 1000),further results
O=C1c2c(O)cccc2[C@H]([C@@H]2O[C@H](CO)[C@@H](O)[C@H](O)[C@H]2O)c2cc(CO)cc(O)c21 [Aloin A],> 50 µM,–
"CCCCC(=O)N(C)C [N,N-Dimethylpentanamide]",> 90 µM,–
CC1(C)O[C@@H]2C[C@H]3[C@@H]4CCC5=CC(=O)C=C[C@]5(C)[C@@]4(F)[C@@H](O)C[C@]3(C)[C@]2(C(=O)CO)O1 [Triamcinolone acetonide],> 90 µM,–
OC1CCCCC1c1ccccc1 (stereo not drawn) [2-Phenylcyclohexanol],> 90 µM,–
"Clc1cnc(Oc2ccc(Oc3ncc(Cl)cc3Cl)cc2)c(Cl)c1 [1,4-Bis[2-(3,5-dichloropyridyloxy)]benzene]",> 60 µM,–
CC[C@]1(O)C[C@H]2CN(CCc3c([nH]c4ccccc34)[C@@](C(=O)OC)(c3cc4c(cc3OC)N(C=O)[C@H]3[C@@](O)(C(=O)OC)[C@H](OC(C)=O)[C@]5(CC)C=CCN6CC[C@]43[C@@H]65)C2)C1 [Vincristine],0.12 µM,–
CCCN1C[C@H](CSC)C[C@@H]2c3cccc4[nH]cc(c34)C[C@H]21 [Pergolide methanesulfonate],> 50 µM,–
CCNC(=O)NC(=O)/C(C#N)=N/OC [Cymoxanil],> 90 µM,–
CC(=O)[C@H]1CC[C@H]2[C@@H]3CC[C@H]4C[C@](C)(O)CC[C@]4(C)[C@H]3CC[C@]12C [Ganaxolone],–,"CC50 at 24 h (AC50 (uM) modified / 1000, Tox21_110001=Tox21_112264, viability, 1 nM T3 present, 24 h): > 50 µM"
CCCCCCCC(=O)O [Octanoic acid],> 90 µM,–
CC[C@@H](NC(C)C)[C@@H](O)c1ccc(O)c2[nH]c(=O)ccc12 [Procaterol],> 50 µM,–
"Nc1ccc(Oc2ccc(N)cc2)cc1 [4,4'-Oxydianiline]",> 90 µM,–
CC(C)(C)c1cc(CO)cc(C(C)(C)C)c1O,82.2 µM,–
CC(=O)CC(=O)Nc1ccc(S(=O)(=O)O)cc1 [Potassium 4-[(3-oxobutanoyl)amino]benzenesulfonate],> 90 µM,–
Nc1cc(S(=O)(=O)O)ccc1O [2-Amino-1-phenol-4-sulfonic acid],> 90 µM,–
CCCCC[C@H](O)/C=C/[C@H]1[C@H](O)CC(=O)[C@@H]1CCCCCCC(=O)O [Alprostadil],> 20 µM,–
CCCC[P+](C)(CCCC)CCCC [Tributylmethylphosphonium methyl sulfate],> 90 µM,–
COc1ccc2c(c1OC)CN1CCc3cc4c(cc3[C@@H]1C2)OCO4 [Canadine],> 20 µM,–
CCCCCC[C@@H](CCC)C(=O)O [(2R)-2-Propyloctanoic acid],> 50 µM,–
C=C1[C@@H]2CC[C@@H](C2)C1(C)C [Camphene],> 90 µM,–
Cc1cc(Cl)ccc1N=CN(C)C [Chlordimeform hydrochloride],–,"CC50 at 24 h (AC50 (uM) modified / 1000, Tox21_110001=Tox21_301412, viability, 1 nM T3 present, 24 h): > 90 µM"
"Nc1ccc(Oc2ccc(N)c(N)c2)cc1 [3,4,4'-Triaminodiphenyl ether]",75.2 µM,–
"CC(C)(O)C#CC(C)(C)O [2,5-Dimethyl-3-hexyne-2,5-diol]",> 90 µM,–
O=c1[nH]c2ccccc2n1CCCN1CCN(C(c2ccccc2)c2ccccc2)CC1 [Oxatomide],20.3 µM,–

SMILES,CC50 at 24 h (AC50 (uM) modified / 1000),further results
O=C(O)[C@H]1CN(C/C=C/P(=O)(O)O)CCN1 [Midafotel],> 50 µM,–
F/C(COc1ccc2c(c1)[nH]c1ccccc12)=C1/CN2CCC1CC2 [2-{[(2E)-2-(1-Azabicyclo[2.2.2]oct-3-ylidene)-2-fluoroethyl]oxy}-9H-carbazole],7.59 µM,–
CC(=O)/C=C/C1C(C)=CCCC1(C)C (stereo not drawn) [alpha-Ionone],> 90 µM,–
CN(C)CC/C=C1/c2ccccc2COc2ccc(CC(=O)O)cc21 [Olopatadine hydrochloride],> 50 µM,–
CN(C)CCC(O)(c1ccccc1)c1ccccc1Cl (stereo not drawn) [Chlophedianol],26 µM,–
N[C@@H](Cc1ccc(O)cc1)C(=O)O [L-Tyrosine],> 50 µM,–
CCOC(=O)Nc1cccc(OC(=O)Nc2ccccc2)c1 [Desmedipham],–,"CC50 at 24 h (AC50 (uM) modified / 1000, Tox21_110001=Tox21_301854, viability, 1 nM T3 present, 24 h): > 90 µM"
N=C(N)N1CCc2ccccc2C1 [Debrisoquin sulfate],> 50 µM,–
CN(C)C(=O)Nc1ccccc1 [Fenuron],> 90 µM,–
CN1CCCC1 [N-Methylpyrrolidine],> 90 µM,–
c1ccc2c(c1)Sc1ccccc1N2CC1CN2CCC1CC2 (stereo not drawn) [Mequitazine],7.76 µM,–
N=C(N)/N=C(\N)N1CCOCC1 [Moroxidine hydrochloride],> 20 µM,–
Cc1cccc(Cc2c[nH]cn2)c1C [Detomidine hydrochloride],> 50 µM,–
CC1(C)[C@H](C=C(Cl)Cl)[C@H]1C(=O)O[C@H](C#N)c1cccc(Oc2ccccc2)c1 [Cypermethrin],> 50 µM,–
"O=C=Nc1ccc(Cl)c(Cl)c1 [3,4-Dichlorophenyl isocyanate]",> 90 µM,–
O=c1cc[nH]c(=S)[nH]1 [Thiouracil],> 90 µM,–
C=C1C[C@H]2[C@@H]3C=C(C)C4=CC(=O)CC[C@]4(C)[C@H]3CC[C@]2(C)[C@@]1(OC(C)=O)C(C)=O [Melengestrol acetate],> 60 µM,–
CC(C)C(O)(c1ccc(OC(F)(F)F)cc1)c1cncnc1 (stereo not drawn) [Flurprimidol],> 90 µM,–
"O=Cc1c(Cl)cccc1Cl [2,6-Dichlorobenzaldehyde]",> 90 µM,–
"Oc1c(Br)cc(Br)cc1Br [2,4,6-Tribromophenol]",–,"CC50 at 24 h (AC50 (uM) modified / 1000, Tox21_110001=Tox21_111098, viability, 1 nM T3 present, 24 h): > 50 µM; CC50 at 24 h (AC50 (uM) modified / 1000, Tox21_110001=Tox21_201273, viability, 1 nM T3 present, 24 h): > 90 µM"
O=C(Cn1c(=O)sc2ccc(Cl)cc21)N1CCN(CCO)CC1 [Tiaramide hydrochloride],> 50 µM,–
CO/N=C(\C(=O)N[C@@H]1C(=O)N2C(C(=O)O)=C(COC(C)=O)CS[C@H]12)c1csc(N)n1 [Cefotaxime sodium],> 50 µM,–
C[C@H]1O[C@@H](n2cc(F)c(=O)[nH]c2=O)[C@H](O)[C@@H]1O [Doxifluridine],> 50 µM,–
